Biological target: human Bruton's Tyrosine Kinase (Btk) (Homo sapiens (Human), UniProt Q06187)
Experiment: Recombinant Human Bruton's Tyrosine Kinase (Btk) Inhibition Assay (HTRF KinEASE-TK)
Type: biochemical
Details: 20 ng/ml rhBtk, 77 μM ATP (KM), 1 μM TK-Biotin substrate, 90 min; read-out: hBTK IC50

Sequence of human Bruton's Tyrosine Kinase (Btk) (Q06187 whole entry): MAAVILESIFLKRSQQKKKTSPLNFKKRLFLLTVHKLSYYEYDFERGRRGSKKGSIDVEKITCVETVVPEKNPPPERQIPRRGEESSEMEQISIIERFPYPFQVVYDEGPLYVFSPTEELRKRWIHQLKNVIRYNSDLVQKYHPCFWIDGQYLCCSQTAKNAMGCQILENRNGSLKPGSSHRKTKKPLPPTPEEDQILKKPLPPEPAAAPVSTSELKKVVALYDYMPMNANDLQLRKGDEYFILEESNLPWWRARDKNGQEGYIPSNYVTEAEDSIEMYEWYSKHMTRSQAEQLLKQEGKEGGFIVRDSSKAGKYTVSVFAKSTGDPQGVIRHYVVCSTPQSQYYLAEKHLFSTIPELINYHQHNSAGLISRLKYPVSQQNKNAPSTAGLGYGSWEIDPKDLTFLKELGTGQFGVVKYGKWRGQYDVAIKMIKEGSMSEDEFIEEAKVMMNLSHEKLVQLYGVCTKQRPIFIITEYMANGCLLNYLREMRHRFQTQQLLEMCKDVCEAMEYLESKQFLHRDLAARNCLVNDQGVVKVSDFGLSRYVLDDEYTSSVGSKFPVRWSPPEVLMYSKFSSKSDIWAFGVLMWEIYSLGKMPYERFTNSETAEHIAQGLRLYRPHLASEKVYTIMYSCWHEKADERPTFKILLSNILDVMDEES

**Q.** `Cc1c(-c2ncnc3[nH]c(-c4cccc(CN5CCNCC5)c4)cc23)cccc1N1CCc2cc(C3CC3)ccc2C1=O` [Example A-3, 6-cyclopropyl-2-[2-methyl-3-[6-[3-(piperazin-1-ylmethyl)phenyl]-7H-pyrrolo[2,3-d]pyrimidin-4-yl]phenyl]-3,4-dihydroisoquinolin-1-one] was tested. Which IC50 did it give?
**A.** 515 nM

**Q.** Which IC50 does the source give for `Cc1c(-c2ncnc3[nH]c(-c4cccc(CN5CCNCC5)c4)cc23)cccc1N1CCOc2cc(C3CC3)ccc2C1=O` [Example A-4, 8-cyclopropyl-4-[2-methyl-3-[6-[3-(piperazin-l-ylmethyl)phenyl]-7H-pyrrolo[2,3-d]pyrimidin-4-yl]phenyl]-2.3-dihydro-l,4-benzoxazepin-5-one] here?
**A.** 396 nM

**Q.** Which IC50 does the source give for `Cc1c(-c2ncnc3[nH]c(-c4ccc(CN5CCOCC5)cc4)cc23)cccc1N1CCOc2cc(C3CC3)ccc2C1=O` [Example A-5, 8-cyclopropyl-4-[2-methyl-3-[6-[4-(morpholinomethyl)phenyl]-7H-pyrrolo[2,3-d]pyrimidin-4-yl]phenyl]-2,3-dihydro-1,4-benzoxazepin-5-one] here?
**A.** 92 nM

**Q.** `Cc1c(-c2ncnc3[nH]c(-c4ccc(CN5CCOCC5)cc4)cc23)cccc1N1CCc2cc(C3CC3)ccc2C1=O` [Example A-6, 6-cyclopropyl-2-[2-methyl-3-[6-[4-(morpholinomethyl)phenyl]-7H-pyrrolo[2,3-d]pyrimidin-4-yl]phenyl]-3,4-dihydroisoquinolin-1-one] was tested. Which IC50 did it give?
**A.** 143 nM

**Q.** `Cc1c(-c2ncnc3[nH]c(-c4cccc(CN5CCOCC5)c4)cc23)cccc1N1CCOc2cc(C3CC3)ccc2C1=O` [Example A-7, 8-cyclopropyl-4-[2-methyl-3-[6-[3-(morpholinomethyl)phenyl]-7H-pyrrolo[2,3-d]pyrimidin-4-yl]phenyl]-2,3-dihydro-1,4-benzoxazepin-5-one] was tested. Which IC50 did it give?
**A.** 415 nM

**Q.** Which IC50 does the source give for `Cc1c(-c2ncnc3[nH]c(-c4cccc(CN5CCOCC5)c4)cc23)cccc1N1CCc2cc(C3CC3)ccc2C1=O` [Example A-8, 6-cyclopropyl-2-[2-methyl-3-[6-[3-(morpholinomethyl)phenyl]-7H-pyrrolo[2,3-d]pyrimidin-4-yl]phenyl]-3,4-dihydroisoquinolin-1-one] here?
**A.** 825 nM

**Q.** Which IC50 does the source give for `Cc1c(-c2ncnc3[nH]c(-c4ccc(CN5CCN(C)CC5)cc4)cc23)cccc1N1CCc2cc(C3CC3)ccc2C1=O` [Example B-3, 6-cyclopropyl-2-[2-methyl-3-[6-[4-[(4-methylpiperazin-1-yl)methyl]phenyl]-7H-pyrrolo[2,3-d]pyrimidin-4-yl]phenyl]-3,4-dihydroisoquinolin-1-one] here?
**A.** 30 nM

**Q.** Which IC50 does the source give for `CCN1CCN(Cc2ccc(-c3cc4c(-c5cccc(N6CCc7cc(C8CC8)ccc7C6=O)c5C)ncnc4[nH]3)cc2)CC1` [Example B-4, 6-cyclopropyl-2-[3-[6-[4-[(4-ethylpiperazin-1-yl)methyl]phenyl]-7H-pyrrolo[2,3-d]pyrimidin-4-yl]-2-methyl-phenyl]-3,4-dihydroisoquinolin-1-one] here?
**A.** 41 nM

**Q.** With `CN1CCN(Cc2ccc(-c3cc4c(-c5cccc(-n6ccc7cc(C8CC8)ccc7c6=O)c5CO)ncnc4[nH]3)cc2)CC1` [Example B-8, 6-cyclopropyl-2-[2-(hydroxymethyl)-3-[6-[4-[(4-methylpiperazin-1-yl)methyl]phenyl]-7H-pyrrolo[2,3-d]pyrimidin-4-yl]phenyl]isoquinolin-1-one] as the molecule, how does the IC50 read?
**A.** 7 nM

**Q.** With `Cc1c(-c2ncnc3[nH]c(-c4ccc(CN5CCN(C)CC5)cc4)cc23)cccc1-n1ccc2cc(C3CC3)ccc2c1=O` [Example B-9, 6-cyclopropyl-2-[2-methyl-3-[6-[4-[(4-methylpiperazin-l-yl)methyl]phenyl]-7H-pyrrolo[2,3-d]pyrimidin-4-yl]phenyl]isoquinolin-1-one] as the molecule, how does the IC50 read?
**A.** 10 nM

**Q.** With `Cc1c(-c2ncnc3[nH]c(-c4ccc(CN5CCNC(=O)C5)cc4)cc23)cccc1N1CCc2cc(C3CC3)ccc2C1=O` [Example B-11, 6-cyclopropyl-2-[2-methyl-3-[6-[4-[(3-oxopiperazin-1-yl)methyl]phenyl]-7H-pyrrolo[2,3-d]pyrimidin-4-yl]phenyl]-3,4-dihydroisoquinolin-1-one] as the molecule, how does the IC50 read?
**A.** 254 nM

**Q.** Which IC50 does the source give for `Cc1c(-c2ncnc3[nH]c(-c4ccc(CN5CCC(C)(O)CC5)cc4)cc23)cccc1N1CCc2cc(C3CC3)ccc2C1=O` [Example B-12, 6-cyclopropyl-2-[3-[6-[4-[(4-hydroxy-4-methyl-1-piperidyl)methyl]phenyl]-7H-pyrrolo[2,3-d]pyrimidin-4-yl]-2-rnethyl-phenyl]-3,4-dihydroisoquinolin-1-one] here?
**A.** 115 nM

**Q.** With `Cc1c(-c2ccnc3[nH]c(-c4ccc(CN5CCN(C)CC5)cc4)cc23)cccc1N1CCOc2cc(C3CC3)ccc2C1=O` [Example B-15, 8-cyclopropyl-4-[2-methyl-3-[2-[4-[(4-methylpiperazin-1-yl)methyl]phenyl]-1H-pyrrolo[2,3-b]pyridin-4-yl]phenyl]-2,3-dihydro-1,4-benzoxazepin-5-one] as the molecule, how does the IC50 read?
**A.** 103 nM

**Q.** `CN1CCN(Cc2ccc(-c3cc4c(-c5cccc(N6CCOc7cc(C8CC8)ccc7C6=O)c5CO)ccnc4[nH]3)c(F)c2)CC1` [Example B-18, 8-cyclopropyl-4-[3-[2-[2-fluoro-4-[(4-methylpiperazin-1-yl)methyl]phenyl]-1H-pyrrolo[2,3-b]pyridin-4-yl]-2-(hydroxymethyl)phenyl]-2,3-dihydro-1,4-benzoxazepin-5-one] was tested. Which IC50 did it give?
**A.** 9 nM

**Q.** `Cc1c(-c2ccnc3[nH]c(-c4ccc(CN5CCN(C)CC5)c(F)c4)cc23)cccc1N1CCOc2cc(C3CC3)ccc2C1=O` [Example B-19, 8-cyclopropyl-4-[3-[2-[3-fluoro-4-[(4-methylpiperazin-1-yl)methyl]phenyl]-lH-pyrrolo[2,3-b]pyridin-4-yl]-2-methyl-phenyl]-2,3-dihydro-1,4-benzoxazepin-5-one] was tested. Which IC50 did it give?
**A.** 190 nM

**Q.** With `CCN1CCN(Cc2ccc(-c3cc4c(-c5cccc(N6CCOc7cc(C8CC8)ccc7C6=O)c5CO)ccnc4[nH]3)cn2)CC1` [Example B-21, 8-cyclopropyl-4-[3-[2-[6-[(4-ethylpiperazin-1-yl)methyl]-3-pyridyl]-1H-pyrrolo[2,3-b]pyridin-4-yl]-2-(hydroxymethyl)phenyl]-2,3-dihydro-1,4-benzoxazepin-5-one] as the molecule, how does the IC50 read?
**A.** 8 nM

**Q.** For `CN1CC=C(c2ccc(-c3cc4c(-c5cccc(N6CCOc7cc(C8CC8)ccc7C6=O)c5CO)ccnc4[nH]3)cc2)CC1` [Example C-4, 8-cyclopropyl-4-[2-(hydroxymethyl)-3-[2-[4-(1-methyl-3,6-dihydro-2H-pyridin-4-yl)phenyl]-1H-pyrrolo[2,3-b]pyridin-4-yl]phenyl]-2,3-dihydro-1,4-benzoxazepin-5-one], which IC50 is on record?
**A.** 11 nM

**Q.** With `Cc1c(-c2ncnc3[nH]c(-c4cnn(C5CCN(C)CC5)c4)cc23)cccc1N1CCOc2cc(C3CC3)ccc2C1=O` [Example D-2, 8-cyclopropyl-4-[2-methyl-3-[6-[1-(1-methyl-4-piperidyl)pyrazol-4-yl]-7H-pyrrolo[2,3-d]pyrimidin-4-yl]phenyl]-2,3-dihydro-1,4-benzoxazepin-5-one] as the molecule, how does the IC50 read?
**A.** 13 nM

**Q.** With `Cc1nn(C2CN(C)C2)cc1-c1cc2c(-c3cccc(N4CCOc5cc(C6CC6)ccc5C4=O)c3CO)ccnc2[nH]1` [Example E-1, 8-cyclopropyl-4-[2-(hydroxymethyl)-3-[2-[3-methyl-1-(1-methylazetidin-3-yl)pyrazol-4-yl]-1H-pyrrolo[2,3-b]pyridin-4-yl]phenyl]-2,3-dihydro-1,4-benzoxazepin-5-one] as the molecule, how does the IC50 read?
**A.** 9 nM

**Q.** For `O=C1c2ccc(C3CC3)cc2OCCN1c1cccc(-c2ccnc3[nH]c(-c4cnn(C5CCOCC5)c4)cc23)c1CO` [Example F-2, 8-cyclopropyl-4-[2-(hydroxymethyl)-3-[2-(1-tetrahydropyran-4-ylpyrazol-4-yl)-1H-pyrrolo[2,3-b]pyridin-4-yl]phenyl]-2,3-dihydro-1,4-benzoxazepin-5-one], which IC50 is on record?
**A.** 43 nM

**Q.** For `Cc1c(-c2ncnc3[nH]c(-c4ccc(C5CCN(CCO)CC5)cc4)cc23)cccc1-n1ccc2cc(C3CC3)ccc2c1=O` [Example H-1, 6-cyclopropyl-2-[3-[6-[4-[1-(2-hydroxyethyl)-4-piperidyl]phenyl]-7H-pyrrolo[2,3-d]pyrimidin-4-yl]-2-methyl-phenyl]isoquinolin-1-one], which IC50 is on record?
**A.** 13 nM

**Q.** Which IC50 does the source give for `CN1CCN(Cc2ccc(-c3cc4c(-c5cccc(N6CCOc7cc(C8CC8)cnc7C6=O)c5CO)ccnc4[nH]3)nc2)CC1` [Example I-3, 8-cyclopropyl-4-[2-(hydroxymethyl)-3-[2-[5-[(4-methylpiperazin-1-yl)methyl]-2-pyridyl]-1H-pyrrolo[2,3-b]pyridin-4-yl]phenyl]-2,3-dihydropyrido[2,3-f][1,4]oxazepin-5-one] here?
**A.** 35 nM

**Q.** `CN(C)C(=O)N1CCN(Cc2ccc(-c3cc4c(-c5cccc(N6CCOc7cc(C8CC8)ccc7C6=O)c5CO)ccnc4[nH]3)nc2)CC1` [Example I-11, 4-[[6-[4-[3-(8-cyclopropyl-5-oxo-2,3-dihydro-1,4-benzoxazepin-4-yl)-2-(hydroxymethyl)phenyl]-1H-pyrrolo[2,3-b]pyridin-2-yl]-3-pyridyl]methyl]-N,N-dimethyl-piperazine-1-carboxamide] was tested. Which IC50 did it give?
**A.** > 1000 nM

**Q.** For `O=C1c2c(F)cc(C3CC3)cc2OCCN1c1cc(F)cc(-c2ccnc3[nH]c(-c4ccc(CN5CCN(C6COC6)CC5)cn4)cc23)c1CO` [Example I-17, 8-cyclopropyl-6-fluoro-4-[5-fluoro-2-(hydroxymethyl)-3-[2-[5-[[4-(oxetan-3-yl)piperazin-1-yl]methyl]-2-pyridyl]-1H-pyrrolo[2,3-b]pyridin-4-yl]phenyl]-2,3-dihydro-1,4-benzoxazepin-5-one], which IC50 is on record?
**A.** 1.3 nM

**Q.** With `Cc1c(-c2ncnc3[nH]c(-c4ccc(C(=O)N5CCCC(O)C5)cc4)cc23)cccc1N1CCOc2cc(C3CC3)ccc2C1=O` (centres unmarked) [Example K-3, 8-cyclopropyl-4-[3-[6-[4-(3-hydroxypiperidine-1-carbonyl)phenyl]-7H-pyrrolo[2,3-d]pyrimidin-4-yl]-2-methyl-phenyl]-2,3-dihydro-1,4-benzoxazepin-5-one] as the molecule, how does the IC50 read?
**A.** 42 nM

**Q.** How did the IC50 turn out when `Cc1c(-c2ncnc3[nH]c(-c4ccc(C(=O)N5CCCCC5)cc4)cc23)cccc1N1CCOc2cc(C3CC3)ccc2C1=O` [Example K-5, 8-cyclopropyl-4-[2-methyl-3-[6-[4-(piperidine-1-carbonyl)phenyl]-7H-pyrrolo[2,3-d]pyrimidin-4-yl]phenyl]-2,3-dihydro-1,4-benzoxazepin-5-one] was run?
**A.** 171 nM
